Laboratory results published in patent US12435072B2, “Compounds” (Vicore Pharma AB, priority 2019, dated 2025).
Where two headings read alike, the source gives them in different places.

What was measured:
[1] = Metabolic stability in pooled human liver microsomes; type: in vitro ADME; details: pooled human liver microsomes 0.5 mg/ml, 1 μM test compound, 37° C.
Description: Pooled human liver microsomes in PBS at a concentration of 0.5 mg/ml was incubated with or without 1 mM NADPH for 70 min at 37° C. Test compound was added after 10 minutes to a final concentration of 1 μM. Samples were withdrawn at 0, 5, 15 and 60 minutes and added to test tubes containing acetonitrile, to stop the reaction, and with terfenadine, used as internal standard. After centrifugation at 10 000×g for 5 minutes the supernatant was diluted 1:1 with 1% formic acid. Samples were separated on a reverse phase column and detected by triple quadrupole MSMS (Agilant model 6540). The concentration of the parent compound at the different time points was measured with an external standard curve using terfenadine as internal standard and the initial metabolic rate in the presence or absence of NADPH calculated.

CYP3A4 = CYP3A4 (Homo sapiens, UniProt P08684); assay: CYP inhibition in human liver microsomes, CYP3A4 (midazolam); type: in vitro ADME; design: incubated with human liver microsomes; tissue Eurofins ITEMG232; host or cells: human liver microsomes; details: probe midazolam, substrate midazolam, read-out: CYP3A4 midazolam Inh %
Sequence of CYP3A4 (P08684 whole entry): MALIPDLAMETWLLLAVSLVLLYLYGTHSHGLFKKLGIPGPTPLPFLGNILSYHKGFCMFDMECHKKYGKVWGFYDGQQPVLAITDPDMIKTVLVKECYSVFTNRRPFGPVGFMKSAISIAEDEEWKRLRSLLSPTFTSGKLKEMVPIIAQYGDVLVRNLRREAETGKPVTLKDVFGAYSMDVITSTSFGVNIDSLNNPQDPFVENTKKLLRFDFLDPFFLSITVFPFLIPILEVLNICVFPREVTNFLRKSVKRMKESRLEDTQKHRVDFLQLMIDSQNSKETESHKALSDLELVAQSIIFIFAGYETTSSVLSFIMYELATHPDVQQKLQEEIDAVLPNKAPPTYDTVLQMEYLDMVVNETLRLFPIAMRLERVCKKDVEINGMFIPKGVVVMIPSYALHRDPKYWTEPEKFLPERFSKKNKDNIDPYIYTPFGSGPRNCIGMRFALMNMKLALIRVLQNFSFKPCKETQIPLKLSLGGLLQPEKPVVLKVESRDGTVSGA
Description: (§1) The following substrates were used: CYP1A phenacetin, CYP2B6 bupropion, CYP2C8 paclitaxel and amodiaquine, CYP2C9 diclofenac, CYP2C19 omeprazole, CYP2D6 dextromethorphan, CYP3A midazolam and testosterone. At the end of the incubation, the formation of metabolite was monitored by HPLC-MS/MS as the peak area response.

CYP2C8 = molecular target: T1, CYP2C8 (Homo sapiens, UniProt P10632); assay: CYP inhibition in human liver microsomes, CYP2C8; type: in vitro ADME; details: probe paclitaxel and amodiaquine, substrate paclitaxel and amodiaquine, read-out: CYP2C8 Inh %
T1 construct: incubated with human liver microsomes; tissue Eurofins ITEMG232; host or cells: human liver microsomes
T1 sequence (P10632 1-490): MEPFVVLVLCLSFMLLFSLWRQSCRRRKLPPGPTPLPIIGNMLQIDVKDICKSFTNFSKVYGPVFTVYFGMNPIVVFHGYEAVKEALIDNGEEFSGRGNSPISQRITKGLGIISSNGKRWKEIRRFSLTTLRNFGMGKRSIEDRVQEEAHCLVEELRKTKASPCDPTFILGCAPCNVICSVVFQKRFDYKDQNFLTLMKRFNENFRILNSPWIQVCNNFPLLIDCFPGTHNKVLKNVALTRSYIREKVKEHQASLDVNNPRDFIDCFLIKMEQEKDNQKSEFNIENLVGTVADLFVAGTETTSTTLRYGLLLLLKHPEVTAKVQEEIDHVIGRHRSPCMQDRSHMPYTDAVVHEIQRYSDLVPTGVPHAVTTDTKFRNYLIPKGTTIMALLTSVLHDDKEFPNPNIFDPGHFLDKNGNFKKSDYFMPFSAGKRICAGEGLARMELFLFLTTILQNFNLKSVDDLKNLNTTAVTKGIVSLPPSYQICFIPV
Description: as §1

[2] = molecular target: T2, human recombinant AT1 receptor (Homo sapiens, UniProt P30556); assay: Binding to AT1 receptor, radiometric scintillation assay (Eurofins); details: ligand 125I(sar1,Ile8)-AT-II, tested at 1 and 10 μM
T2 construct: purchased Eurofins ITEM24
T2 sequence (P30556 1-359): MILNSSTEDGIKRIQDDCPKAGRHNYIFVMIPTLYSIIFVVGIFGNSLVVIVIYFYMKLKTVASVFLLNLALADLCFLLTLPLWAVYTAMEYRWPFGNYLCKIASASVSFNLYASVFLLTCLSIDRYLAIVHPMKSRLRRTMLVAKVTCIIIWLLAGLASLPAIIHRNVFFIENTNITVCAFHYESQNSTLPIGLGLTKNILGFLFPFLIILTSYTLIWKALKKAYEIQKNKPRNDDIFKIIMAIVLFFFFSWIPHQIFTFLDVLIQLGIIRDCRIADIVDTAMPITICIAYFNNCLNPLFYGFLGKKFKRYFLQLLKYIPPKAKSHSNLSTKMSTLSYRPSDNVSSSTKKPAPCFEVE
Description: (§2) Compounds were evaluated for binding to the human recombinant AT2 and AT1 receptor according to Eurofins protocol ITEM26 and ITEM24 using a radiometric scintillation assay.

CYP2D6 = molecular target: T3, CYP2D6 (Homo sapiens, UniProt P10635); assay: CYP inhibition in human liver microsomes, CYP2D6; type: in vitro ADME; details: probe dextromethorphan, substrate dextromethorphan, read-out: CYP2D6 Inh %
T3 construct: incubated with human liver microsomes; tissue Eurofins ITEMG232; host or cells: human liver microsomes
T3 sequence (P10635 whole entry): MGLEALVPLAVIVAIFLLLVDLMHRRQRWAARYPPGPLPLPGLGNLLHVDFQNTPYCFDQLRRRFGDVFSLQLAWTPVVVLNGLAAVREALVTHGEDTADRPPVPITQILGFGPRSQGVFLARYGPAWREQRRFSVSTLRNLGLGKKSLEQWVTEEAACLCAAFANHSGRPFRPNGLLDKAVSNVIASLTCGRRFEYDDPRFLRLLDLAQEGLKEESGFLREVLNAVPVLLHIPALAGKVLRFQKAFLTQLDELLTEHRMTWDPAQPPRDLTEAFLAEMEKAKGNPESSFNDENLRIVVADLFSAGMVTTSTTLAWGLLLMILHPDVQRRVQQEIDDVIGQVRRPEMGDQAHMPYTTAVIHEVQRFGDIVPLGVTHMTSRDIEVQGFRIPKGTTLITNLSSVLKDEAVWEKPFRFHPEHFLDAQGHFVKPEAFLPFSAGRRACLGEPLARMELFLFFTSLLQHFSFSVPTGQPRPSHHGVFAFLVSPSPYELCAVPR
Description: as §1

[3] = molecular target: T4, human recombinant AT2 receptor (Homo sapiens, UniProt P50052); assay: Binding to AT2 receptor, radiometric scintillation assay (Eurofins); details: ligand 125I CGP 42112A, tested at 1, 10, 100 and 1000 nM
T4 construct: purchased Eurofins ITEM26
T4 sequence (P50052 1-363): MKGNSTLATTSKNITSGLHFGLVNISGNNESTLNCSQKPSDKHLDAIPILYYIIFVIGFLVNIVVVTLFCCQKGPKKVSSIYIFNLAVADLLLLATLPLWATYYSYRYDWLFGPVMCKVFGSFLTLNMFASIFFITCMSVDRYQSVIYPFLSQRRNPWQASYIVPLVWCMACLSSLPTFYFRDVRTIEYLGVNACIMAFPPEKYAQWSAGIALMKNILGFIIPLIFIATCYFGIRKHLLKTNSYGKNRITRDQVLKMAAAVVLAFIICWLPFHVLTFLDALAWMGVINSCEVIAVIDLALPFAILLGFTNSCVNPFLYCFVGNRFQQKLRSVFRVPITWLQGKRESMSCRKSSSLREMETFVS
Description: as §2

CYP3A4&5 = assay: CYP inhibition in human liver microsomes, CYP3A4&5 (testosterone); type: in vitro ADME; details: probe testosterone, substrate testosterone, read-out: CYP3A4&5 testosterone Inh %
Description: as §1

CYP2C9 = CYP2C9 (Homo sapiens, UniProt P11712); assay: CYP inhibition in human liver microsomes, CYP2C9; type: in vitro ADME; design: incubated with human liver microsomes; tissue Eurofins ITEMG232; host or cells: human liver microsomes; details: probe diclofenac, substrate diclofenac, read-out: CYP2C9 Inh %
Sequence of CYP2C9 (P11712 whole entry): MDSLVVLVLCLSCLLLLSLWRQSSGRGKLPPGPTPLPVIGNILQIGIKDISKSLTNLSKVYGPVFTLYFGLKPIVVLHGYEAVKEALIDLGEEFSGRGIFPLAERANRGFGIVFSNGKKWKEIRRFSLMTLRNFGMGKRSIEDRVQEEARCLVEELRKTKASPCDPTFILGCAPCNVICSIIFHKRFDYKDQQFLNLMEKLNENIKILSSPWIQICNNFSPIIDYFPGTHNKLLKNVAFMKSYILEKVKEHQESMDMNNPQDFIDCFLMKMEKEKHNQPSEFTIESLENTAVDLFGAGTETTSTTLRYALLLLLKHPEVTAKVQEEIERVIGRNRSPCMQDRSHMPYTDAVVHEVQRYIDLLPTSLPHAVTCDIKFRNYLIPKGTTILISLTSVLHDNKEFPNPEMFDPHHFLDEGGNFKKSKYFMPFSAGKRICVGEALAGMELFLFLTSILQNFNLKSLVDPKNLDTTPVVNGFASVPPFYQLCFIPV
Description: as §1

CYP2C19 = molecular target: T5, CYP2C19 (Homo sapiens, UniProt P33261); assay: CYP inhibition in human liver microsomes, CYP2C19; type: in vitro ADME; details: probe omeprazole, substrate omeprazole, read-out: CYP2C19 Inh %
T5 construct: incubated with human liver microsomes; tissue Eurofins ITEMG232; host or cells: human liver microsomes
T5 sequence (P33261 whole entry): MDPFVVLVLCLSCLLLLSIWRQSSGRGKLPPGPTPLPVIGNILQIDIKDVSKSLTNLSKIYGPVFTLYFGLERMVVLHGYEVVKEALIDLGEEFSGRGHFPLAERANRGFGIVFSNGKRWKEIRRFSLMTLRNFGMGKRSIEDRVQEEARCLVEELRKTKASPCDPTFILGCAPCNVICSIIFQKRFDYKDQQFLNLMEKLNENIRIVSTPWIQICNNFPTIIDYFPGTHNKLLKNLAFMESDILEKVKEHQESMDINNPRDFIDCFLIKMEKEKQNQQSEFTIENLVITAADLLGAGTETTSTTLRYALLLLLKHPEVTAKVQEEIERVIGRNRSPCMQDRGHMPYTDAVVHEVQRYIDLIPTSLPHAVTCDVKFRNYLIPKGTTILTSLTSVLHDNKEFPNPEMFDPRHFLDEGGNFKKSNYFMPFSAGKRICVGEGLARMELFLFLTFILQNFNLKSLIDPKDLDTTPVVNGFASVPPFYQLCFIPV
Description: as §1

[4] = with 1 mM NADPH, read-out: T1/2, + NaDPH
[5] = without NADPH, read-out: T1/2, no NaDPH

| SMILES | half-life at 1 μM [1, 4] [min] | half-life at 1 μM [1, 5] [min] | inhibition at 10 µM (CYP3A4) [%] | inhibition at 10 µM (CYP2C8) [%] | IC50 [2] [µM] | inhibition at 10 µM (CYP2D6) [%] | IC50 [3] [nM] | inhibition at 10 µM (CYP3A4&5) [%] | inhibition at 10 µM (CYP2C9) [%] | inhibition at 10 µM (CYP2C19) [%] |
| --- | --- | --- | --- | --- | --- | --- | --- | --- | --- | --- |
| Cc1nccn1Cc1ccc(-c2cc(CC(C)C)sc2S(=O)(=O)NC(=O)NCc2ccccn2)cc1 [Example 2, 3-(5-isobutyl-3-{p-[(2-Methyl-1H-imidazol-1-yl)methyl]phenyl}-2-thienylsulfonyl)-1-[(2-pyridyl)methyl]urea] | > 60 | > 60 | 22.1 | 52.8 | > 10 | 8.6 | 5.5 | 0.3 | 30.4 | 35.4 |
| Cc1nccn1Cc1ccc(-c2cc(CC(C)C)sc2S(=O)(=O)NC(=O)NC(C)c2ccccn2)cc1F (stereo not drawn) [Example 25, 3-(3-{3-Fluoro-4-[(2-methyl-1H-imidazol-1-yl)methyl]phenyl}-5-isobutyl-2-thienylsulfonyl)-1-[1-(2-pyridyl)ethyl]urea] | 60 | > 60 | 16 | 56 | 30 | 16 | 2.5 | 15 | 50 | 56 |
| CC(C)Cc1cc(-c2ccc(Cn3ccnc3C(C)C)c(F)c2)c(S(=O)(=O)NC(=O)NCCC(F)(F)F)s1.O=C(O)C(F)(F)F [Example 41, 1-{[3-(3-fluoro-4-{[2-(propan-2-yl)-1H-imidazol-1-yl]methyl}phenyl)-5-(2-methylpropyl)thiophen-2-yl]sulfonyl}-3-(3,3,3-trifluoropropyl)urea trifluoroacetic acid] | 43 | > 60 | -5 | 76 | 4 | 12 | 4.9 | 10 | 58 | 53 |
| Cc1nccn1Cc1ccc(-c2cc(CC(C)C)sc2S(=O)(=O)NC(=O)NCc2ccccc2)cc1 [Example 1, 1-benzyl-3-[[5-isobutyl-3-[4-[(2-methylimidazol-1-yl)methyl]phenyl]-2-thienyl]sulfonyl]urea] | 24 | > 60 | 41.3 | 40 | > 1 | 14.3 | 4 | 21.4 | 49.7 | 59.1 |
| Cc1nccn1Cc1ccc(-c2cc(CC(C)C)sc2S(=O)(=O)NC(=O)NCCC(F)(F)F)cc1F [Example 14, 3-(3-{3-Fluoro-4-[(2-methyl-1H-imidazol-1-yl)methyl]phenyl}-5-isobutyl-2-thienylsulfonyl)-1-(3,3,3-trifluoropropyl)urea] | 90 | > 60 | 30 | 78 | 25 | 30 | 3.3 | 33 | 65 | 62 |
| CCc1nccn1Cc1ccc(-c2cc(CC(C)C)sc2S(=O)(=O)NC(=O)NCCOC)cc1 [Example 7, 3-(3-{p-[(2-Ethyl-1H-imidazol-1-yl)methyl]phenyl}-5-isobutyl-2-thienylsulfonyl)-1-(2-methoxy-ethyl)urea] | > 60 | > 60 | 10.1 | 38.6 | > 10 | 3.2 | 15.2 | 3 | 10.2 | 37.9 |
| CCc1nccn1Cc1ccc(-c2cc(CC(C)C)sc2S(=O)(=O)NC(=O)NCc2ccc(F)cc2)cc1F.O=C(O)C(F)(F)F [Example 32, 3-[(3-{4-[(2-ethyl-1H-imidazol-1-yl)methyl]-3-fluorophenyl}-5-(2-methylpropyl)thiophen-2-yl)sulfonyl]-1-[(4-fluorophenyl)methyl] urea trifluoroacetic acid] | 7 | > 60 | 35 | 65 | 5 | 39 | 1.6 | 10 | 49 | 67 |
| Cc1nccn1Cc1ccc(-c2cc(CC(C)C)sc2S(=O)(=O)NC(=O)NCc2cc(Cl)ccn2)cc1F.O=C(O)C(F)(F)F [Example 38, 1-[(4-chloropyridin-2-yl)methyl]-3-[(3-{3-fluoro-4-[(2-methyl-1H-imidazol-1-yl)methyl]phenyl}-5-(2-methylpropyl)thiophen-2-yl)sulfonyl]urea trifluoroacetic acid] | 27 | > 60 | 22 | 62 | 25 | 19 | 16.6 | 13 | 48 | 58 |
| Cc1nccn1Cc1ccc(-c2cc(CC(C)C)sc2S(=O)(=O)NC(=O)NCc2ccccn2)cc1F [Example 13, 3-(3-{3-Fluoro-4-[(2-methyl-1H-imidazol-1-yl)methyl]phenyl}-5-isobutyl-2-thienylsulfonyl)-1-[(2-pyridyl)methyl]urea] | > 60 | > 60 | 80 | 77 | 26 | 12 | 0.53 | 9 | 32 | 40 |
